Measurements reported in publication PMC8199067, “Urolithin and Reduced Urolithin Derivatives as Potent Inhibitors of Tyrosinase and Melanogenesis: Importance of the 4-Substituted Resorcinol Moiety” (International Journal of Molecular Sciences, 2021).

Tests used:
mushroom tyrosinase = mushroom tyrosinase (Agaricus bisporus, UniProt C7FF04); assay: Mushroom tyrosinase inhibitory assay (L-tyrosine substrate); format: biochemical; settings: 50 μM, L-tyrosine as substrate, mean ± SEM, NI means no inhibition
Chain of mushroom tyrosinase (C7FF04 1-392 limits assumed): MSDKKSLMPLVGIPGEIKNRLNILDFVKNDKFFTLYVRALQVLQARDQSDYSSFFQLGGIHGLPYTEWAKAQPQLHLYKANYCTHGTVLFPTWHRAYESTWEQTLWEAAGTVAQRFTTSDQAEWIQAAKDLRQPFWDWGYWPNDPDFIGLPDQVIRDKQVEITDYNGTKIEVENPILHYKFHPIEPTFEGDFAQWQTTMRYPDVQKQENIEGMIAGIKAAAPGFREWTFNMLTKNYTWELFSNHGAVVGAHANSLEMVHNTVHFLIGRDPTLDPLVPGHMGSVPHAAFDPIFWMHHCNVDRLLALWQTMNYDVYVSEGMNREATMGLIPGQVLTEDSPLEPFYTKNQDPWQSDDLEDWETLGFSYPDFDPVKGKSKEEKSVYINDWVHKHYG
Description: The experiment was repeated three times. Mushroom tyrosinase inhibitions % were calculated using:% Inhibition = [1 − (A/B)] × 100(1) where A is the absorbance of the test compound and B is the absorbance of the blank.
Log-linear curves were plotted, and their equations were determined.

B16F10 melanoma cells [1] = test system: B16F10 melanoma cells; parameters: method as in PMID 28726389; settings: B16F10 melanoma cells ref 70; cited from earlier work
B16F10 melanoma cells [2] = test system: B16F10 melanoma cells; parameters: method as in Su and co-workers; settings: at the same concentration (20 µM) ref Su and co-workers; cited from earlier work

O=c1oc2cc(O)ccc2c2ccccc12 [Compound 1a, 3-Hydroxy-6H-benzo[c]chromen-6-one]
inhibition at 50 µM (mushroom tyrosinase): < 0% | Tyrosinase Inhibition (%) (mushroom tyrosinase; listed as urolithin B): did not inhibit tyrosinase | Tyrosinase Inhibition (%) (mushroom tyrosinase; listed as urolitin B): did not show inhibitory activity | Antimelanogenic effect (B16F10 melanoma cells [1]): antimelanogenic effects through tyrosinase inhibition | Cytotoxicity compared with 1c and 1h (B16F10 melanoma cells [2]): higher cytotoxicity

O=c1oc2cc(O)ccc2c2ccc(O)cc12 [Compound 1e, 3,8-Dihydroxy-6H-benzo[c]chromen-6-one]
inhibition at 50 µM (mushroom tyrosinase): < 0% | Tyrosinase Inhibition (%) (mushroom tyrosinase; listed as urolithin A): did not show inhibitory activity | Antimelanogenic effect (B16F10 melanoma cells [1]): antimelanogenic effects through tyrosinase inhibition | Cytotoxicity compared with 1c and 1h (B16F10 melanoma cells [2]): higher cytotoxicity
